Experiment [1] concerns the target T1, Adrenergic receptor alpha-1 (Rattus norvegicus, UniProt P15823+P23944+P43140).
T1 sequence (P15823 whole entry): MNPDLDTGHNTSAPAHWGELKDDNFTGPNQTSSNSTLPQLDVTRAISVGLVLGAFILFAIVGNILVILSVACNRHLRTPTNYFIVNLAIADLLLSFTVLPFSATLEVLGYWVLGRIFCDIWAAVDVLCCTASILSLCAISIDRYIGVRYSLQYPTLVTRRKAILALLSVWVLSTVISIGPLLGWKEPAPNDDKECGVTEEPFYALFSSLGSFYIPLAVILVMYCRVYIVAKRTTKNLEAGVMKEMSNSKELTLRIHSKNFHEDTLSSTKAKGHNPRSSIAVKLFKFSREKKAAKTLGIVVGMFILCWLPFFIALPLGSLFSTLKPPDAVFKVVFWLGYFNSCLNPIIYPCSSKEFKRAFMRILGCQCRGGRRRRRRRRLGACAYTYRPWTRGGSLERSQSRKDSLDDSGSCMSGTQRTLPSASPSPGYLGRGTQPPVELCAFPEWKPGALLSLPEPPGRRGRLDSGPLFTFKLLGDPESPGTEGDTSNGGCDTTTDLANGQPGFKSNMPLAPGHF
T1 sequence (P23944 whole entry): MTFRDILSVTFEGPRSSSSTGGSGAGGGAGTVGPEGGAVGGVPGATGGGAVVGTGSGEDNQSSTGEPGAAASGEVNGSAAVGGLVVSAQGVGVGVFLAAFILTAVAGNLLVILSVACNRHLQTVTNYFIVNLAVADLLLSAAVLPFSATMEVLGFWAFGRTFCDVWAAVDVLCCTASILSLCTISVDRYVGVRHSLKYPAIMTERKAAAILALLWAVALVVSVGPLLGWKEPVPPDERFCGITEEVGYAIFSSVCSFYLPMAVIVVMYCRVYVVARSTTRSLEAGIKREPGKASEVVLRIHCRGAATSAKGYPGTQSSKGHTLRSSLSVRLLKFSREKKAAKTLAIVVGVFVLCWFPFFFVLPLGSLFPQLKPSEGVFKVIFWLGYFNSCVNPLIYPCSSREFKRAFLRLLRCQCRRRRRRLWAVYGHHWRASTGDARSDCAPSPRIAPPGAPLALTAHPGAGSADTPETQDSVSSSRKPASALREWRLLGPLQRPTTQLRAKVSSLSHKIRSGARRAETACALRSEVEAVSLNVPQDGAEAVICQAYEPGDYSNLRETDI
T1 sequence (P43140 whole entry): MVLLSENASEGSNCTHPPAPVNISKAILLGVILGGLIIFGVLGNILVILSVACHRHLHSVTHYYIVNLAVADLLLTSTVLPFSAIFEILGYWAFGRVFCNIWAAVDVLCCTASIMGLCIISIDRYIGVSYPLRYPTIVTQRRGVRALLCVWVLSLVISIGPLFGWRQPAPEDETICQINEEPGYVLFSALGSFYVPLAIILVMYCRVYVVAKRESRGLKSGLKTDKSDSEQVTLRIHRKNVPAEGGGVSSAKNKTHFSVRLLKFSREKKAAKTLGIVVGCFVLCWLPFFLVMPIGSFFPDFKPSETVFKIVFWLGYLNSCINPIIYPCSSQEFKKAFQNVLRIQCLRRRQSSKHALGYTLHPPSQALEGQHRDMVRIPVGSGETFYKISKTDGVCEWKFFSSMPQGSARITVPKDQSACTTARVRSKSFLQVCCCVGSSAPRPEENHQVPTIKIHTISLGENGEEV
Put plainly: Displacement of [3H]prazosin from alpha1 adrenergic receptor in rat cerebral cortex by liquid scintillation method. The format is tissue-based.

Experiment [2] deals with Rattus norvegicus. Put plainly: Effect on heart rate in anaesthetized Wistar rat assessed as number of beats per minute at 1 mg/kg, iv after 5 mins by electrocardiography. The format is functional.
For experiment [3], the system named is Rattus norvegicus. Put plainly: Effect on electrocardiogram in anaesthetized Wistar rat assessed as change in QRS interval at 1 mg/kg, iv after 15 mins by electrocardiography. It counts as functional.
The subject of experiment [4] is Rattus norvegicus. Put plainly: Antiarrhythmic activity against adrenaline-induced arrhythmia in iv dosed anaesthetized Wistar rat assessed as inhibition of premature ventricular beats pretreated 60 mins prior to adrenaline challenge. The format is functional. The conditions noted are these: Heart.
Experiment [5] in a line: Decrease in amplitude of contraction in rabbit intestine at 10 uM after 5 mins. More on the design: scale not given: the % may be the effect or the level left. The format is functional, Oryctolagus cuniculus.
The test system of experiment [6] is Rattus norvegicus. Put plainly: Hypotensive activity in po dosed anaesthetized normotensive Wistar rat assessed as decrease in systolic pressure administered as single dose after 5 mins. The format is functional, organism-based.
The test system of experiment [7] is Rattus norvegicus. Put plainly: Hypotensive activity in po dosed anaesthetized normotensive Wistar rat assessed as decrease in diastolic pressure administered as single dose after 5 mins. The format is functional, organism-based.
Experiment [8] deals with Rattus norvegicus. Description: Hypotensive activity in anaesthetized normotensive Wistar rat assessed as decrease in systolic pressure at 0.125 to 1 mg/kg, iv administered as single dose after 5 mins. The format is functional. More on the design: scale not given: the % may be the effect or the level left. The note with it: dose mg/kg 0.125-1.
Experiment [9] relates to Rattus norvegicus. Put plainly: Hypotensive activity in anaesthetized normotensive Wistar rat assessed as decrease in diastolic pressure at 0.125 to 1 mg/kg, iv administered as single dose after 5 mins. The note with it: dose mg/kg 0.125-1. The format is functional. More on the design: scale not given: the % may be the effect or the level left.
Experiment [10] has as its system Rattus norvegicus. Put plainly: Hypotensive activity in anaesthetized normotensive Wistar rat assessed as decrease in systolic pressure at 0.625 mg/kg, iv administered as single dose after 5 mins. The format is functional. More on the design: scale not given: the % may be the effect or the level left.
For experiment [11], the system named is Rattus norvegicus. Description: Hypotensive activity in anaesthetized normotensive Wistar rat assessed as decrease in diastolic pressure at 0.625 mg/kg, iv administered as single dose after 5 mins. The format is functional. More on the design: scale not given: the % may be the effect or the level left.
Experiment [12] relates to Rattus norvegicus. Description: Hypotensive activity in anaesthetized normotensive Wistar rat assessed as decrease in systolic pressure at 0.625 mg/kg, po administered as single dose after 5 mins. It counts as functional, organism-based. More on the design: dose 0.625 mg/kg.
Experiment [13] concerns Rattus norvegicus. Put plainly: Hypotensive activity in anaesthetized normotensive Wistar rat assessed as decrease in diastolic pressure at 0.625 mg/kg, po administered as single dose after 5 mins. More on the design: dose 0.625 mg/kg. The format is functional, organism-based.
Experiment [14] has as its system Rattus norvegicus. Put plainly: Hypotensive activity in anaesthetized normotensive Wistar rat assessed as reduction in norepinephrine induced pressor response at 1 mg/kg, iv after 5 mins. It counts as functional, organism-based. More on the design: dose 1 mg/kg.
The test system of experiment [15] is Rattus norvegicus. Description: Hypotensive activity in anaesthetized normotensive Wistar rat assessed as decrease in systolic pressure at 0.25 to 1 mg/kg, iv administered as single dose after 5 mins. The format is functional. More on the design: scale not given: the % may be the effect or the level left. The note with it: dose mg/kg 0.25-1.
Experiment [16] deals with Rattus norvegicus. Put plainly: Hypotensive activity in anaesthetized normotensive Wistar rat assessed as decrease in diastolic pressure at 0.25 to 1 mg/kg, iv administered as single dose after 5 mins. More on the design: scale not given: the % may be the effect or the level left. The conditions noted are these: dose mg/kg 0.25-1. The format is functional.
Experiment [17] has as its system Rattus norvegicus. Put plainly: Hypotensive activity in anaesthetized normotensive Wistar rat assessed as decrease in systolic pressure at 0.125 to 1 mg/kg, po administered as single dose after 5 mins. The format is functional, organism-based.
The test system of experiment [18] is Rattus norvegicus. Put plainly: Hypotensive activity in anaesthetized normotensive Wistar rat assessed as decrease in diastolic pressure at 0.125 to 1 mg/kg, po administered as single dose after 5 mins. The format is functional, organism-based.
The nature of experiment [19]: Increase in frequency of contraction in rabbit intestine at 1 nM after 5 mins. It counts as functional, Oryctolagus cuniculus.

The source made the active and inactive calls. The rule behind the calls is not given here.

In general, Ki refers to a measure of affinity in units of concentration, obtained from inhibition or displacement. A word on the ED50: it is the dose that gives a 50% effect, or the effect in half of the subjects.

Consider `COc1ccccc1OCCNC[C@@H](O)COc1cccc2[nH]ccc12`, for which, in experiment [1], the inhibition constant (Ki) was found to be 88.3 nM. The figures for the Activity (in the experiment on Rattus norvegicus [2]; in the experiment with Rattus norvegicus [3]; in [5]) were 310.2 min⁻¹, 21.7 ms and 31%, respectively. Also, the ED50 in the experiment with Rattus norvegicus [4] came to 0.43 mg/kg. The outcome in the experiment on Rattus norvegicus [6] and in the experiment with Rattus norvegicus [7] was inactive.
In turn, `COc1ccccc1OCCNC[C@H](O)COc1cccc2[nH]ccc12` registered an inhibition constant Ki in experiment [1] of 56.7 nM. Besides, the Activity in the experiment with Rattus norvegicus [2] was 291.3 min⁻¹; in the experiment on Rattus norvegicus [3] it was 22.7 ms; with Rattus norvegicus [8], 15%; in the experiment with Rattus norvegicus [9] it was 14%; with Rattus norvegicus [10], 8%; in the experiment with Rattus norvegicus [11], 8%. Further, the median effective dose (ED50) with Rattus norvegicus [4] amounted to 0.059 mg/kg. Besides, the result in the experiment on Rattus norvegicus [12], in the experiment with Rattus norvegicus [13] and in the experiment on Rattus norvegicus [14] was Active.
`COc1ccccc1OCCNCC(O)COc1cccc2[nH]ccc12` (racemic): in experiment [1], the Ki came to 89.8 nM. Moreover, the Activity with Rattus norvegicus [2] was found to be 294.5 min⁻¹; with Rattus norvegicus [3], 26.9 ms; with Rattus norvegicus [15], 10%; in the experiment on Rattus norvegicus [16] it was 10%; in [5], 29%; in [19], 8%. Further, the median effective dose (ED50) with Rattus norvegicus [4] was 0.34 mg/kg. The result in the experiment with Rattus norvegicus [17], in the experiment on Rattus norvegicus [18] and in the experiment with Rattus norvegicus [14] was Active.
